Results: ChEMBL document CHEMBL1127743, “Structure-based design of HIV-1 protease inhibitors: replacement of two amides and a 10 pi-aromatic system by a fused bis-tetrahydrofuran” (J Med Chem, 1994)

Key:
[1] = target: Human immunodeficiency virus type 1 protease (Human immunodeficiency virus 1, UniProt Q72874); assay: Tested for inhibitory activity against HIV protease enzyme
[2] = target: Human immunodeficiency virus type 1 protease (Human immunodeficiency virus 1) (UniProt Q72874)
Description: Tested for antiviral potency against HIV protease enzyme

Structure (SMILES): CC(C)(C)NC(=O)[C@@H]1C[C@@H]2CCCC[C@@H]2CN1C[C@@H](O)[C@H](Cc1ccccc1)NC(=O)O[C@@H]1CO[C@@H]2OCC[C@@H]21
- IC50 [1]: 6.4 nM
- IC95 [2]: 200 nM
